Where “and” joins values, the source holds several entries; their conditions need not be identical. Equal values may be shown once. Read-outs that look alike come from different tables or passages of the source. Each block holds one compound with its values, some of them ahead of it.
Experiments:
Aurora-A = Aurora-A (Homo sapiens (Human), UniProt O14965); settings: read-out: Aurora-A IC50; biochemical assay
Procedure: Aurora kinase assays: Aurora kinase IC50 values were determined as previously described.^26, 36

hERG [1] = biological target: T1, hERG (Homo sapiens (Human), UniProt Q12809)
CYP1A2 = CYP1A2 (Homo sapiens (Human), UniProt P05177); experiment: Inhibition of CYP isozymes in human liver microsomes, CYP1A2
CYP2A6 = CYP2A6 (Homo sapiens (Human), UniProt P11509); experiment: Inhibition of CYP isozymes in human liver microsomes, CYP2A6; settings: read-out: Estimated IC50 CYP2A6, probe Coumarin
CYP2C9 = CYP2C9 (Homo sapiens (Human), UniProt P11712); experiment: Inhibition of CYP isozymes in human liver microsomes, CYP2C9
CYP2D6 = CYP2D6 (Homo sapiens (Human), UniProt P10635); experiment: Inhibition of CYP isozymes in human liver microsomes, CYP2D6
CYP3A4 = CYP3A4 (Homo sapiens (Human), UniProt P08684); experiment: Inhibition of CYP isozymes in human liver microsomes, CYP3A4; settings: read-out: Estimated IC50 CYP3A4, probe Midazolam
CYP2C19 = CYP2C19 (Homo sapiens (Human), UniProt P33261); experiment: Inhibition of CYP isozymes in human liver microsomes, CYP2C19
[2] = Mouse liver microsomal stability; format: in vitro ADME; settings: mouse liver microsomes, after a 30 min incubation
Procedure: (§1) Compounds (10 μM) were incubated with male CD1 mouse liver microsomes (1 mg·mL^−1) protein in the presence of NADPH (1 mM), UDPGA (2.5 mM) and MgCl2 (3 mM) in phosphate buffered saline (10 mM) at 37° C. Incubations were conducted for 0 and 30 minutes. Control incubations were generated by the omission of NADPH and UDPGA from the incubation reaction. The percentage compound remaining was determined after analysis by LCMS.

[3] = Human liver microsomal stability; format: in vitro ADME; settings: human liver microsomes, after a 30 min incubation
Procedure: as §1, with “mixed gender pooled human” for “male CD1 mouse”

hERG [4] = biological target: T1, hERG; experiment: hERG inhibition (cell-based electrophysiology, hERG tail current)
[5] = test system: SW620 human colon carcinoma xenograft; settings: literature (ref 26); cited from earlier work
Log D measurement = format: physicochemical; settings: pH 7.4, experimentally determined value
Procedure: Physicochemical properties: Log D and pKa measurements were performed by Pharmorphix® Solid State Services, Member of the Sigma-Aldrich Group, Cambridge, UK.

[6] = test system: 442-kinase panel (386 non-mutant kinases); experiment: KINOMEScan kinase selectivity profiling, 442-kinase panel; format: binding; settings: 1 μM; >90% competition
Procedure: (§2) Kinase selectivity profiling: Kinase profiling using the KINOMEScan™ technology and Kd determinations were performed by KINOMEscan, a Division of DiscoveRx Corporation, San Diego, Calif., USA; www.kinomescan.com.

Aurora-B = Aurora-B (Homo sapiens (Human), UniProt Q96GD4); experiment: KINOMEScan Aurora-B; format: binding; settings: read-out: % control Aurora-B
Procedure: as §2

FLT3 = FLT3 (Homo sapiens (Human), UniProt P36888); experiment: KINOMEScan FLT3; format: binding; settings: 1 μM primary screening
Procedure: as §2

FLT3(D835H) = FLT3(D835H) (Homo sapiens (Human), UniProt P36888, D835H); experiment: KINOMEScan FLT3(D835H); format: binding; settings: 1 μM primary screening
Procedure: as §2

FLT3(D835Y) = FLT3(D835Y) (Homo sapiens (Human), UniProt P36888, D835Y); experiment: KINOMEScan FLT3(D835Y); format: binding; settings: 1 μM primary screening
Procedure: as §2

FLT3-ITD = FLT3-ITD (Homo sapiens, UniProt P36888); experiment: KINOMEScan FLT3-ITD; format: binding; settings: 1 μM primary screening
Procedure: as §2

[7] = test system: HCT116 human colon carcinoma; experiment: Cell viability assay, HCT116; format: cell-based; settings: HCT-116
[8] = test system: MV4-11 human tumour xenografts; experiment: Human tumour xenograft efficacy study (MV4-11); format: in vivo
From the text: Brit J Cancer 102: 1555-1577, 2010.

[9] = test system: histone H-3 phosphorylation at S10; experiment: 4-day PK/PD study: histone H-3 phosphorylation in MV4-11 xenografts; format: in vivo, mouse; settings: 50 and 100 mg/kg oral twice daily, 4 days
Procedure: (§3) Tumour samples were obtained 2 h after the final dose. Total histone H3, total Stat5 and GAPDH were used as loading controls.

[10] = test system: phosphorylation of STAT5 at Y694; experiment: 4-day PK/PD study: STAT5 phosphorylation in MV4-11 xenografts; format: in vivo, mouse; settings: 50 and 100 mg/kg oral twice daily, 4 days
Procedure: as §3

CYP2C19, sequence (P33261 whole entry): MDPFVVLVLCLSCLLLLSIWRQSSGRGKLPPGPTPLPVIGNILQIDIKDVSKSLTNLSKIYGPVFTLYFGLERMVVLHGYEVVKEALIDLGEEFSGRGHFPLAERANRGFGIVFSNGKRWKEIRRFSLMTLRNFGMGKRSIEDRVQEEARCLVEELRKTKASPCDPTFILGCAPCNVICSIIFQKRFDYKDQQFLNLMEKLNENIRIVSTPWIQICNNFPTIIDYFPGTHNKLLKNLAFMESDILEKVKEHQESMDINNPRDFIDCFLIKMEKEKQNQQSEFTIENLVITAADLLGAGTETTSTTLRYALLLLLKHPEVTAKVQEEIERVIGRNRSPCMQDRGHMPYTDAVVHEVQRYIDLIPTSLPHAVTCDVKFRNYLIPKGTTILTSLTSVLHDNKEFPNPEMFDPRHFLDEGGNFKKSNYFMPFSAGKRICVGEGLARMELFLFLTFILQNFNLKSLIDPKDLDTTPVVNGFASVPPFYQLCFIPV
CYP2A6, sequence (P11509 whole entry): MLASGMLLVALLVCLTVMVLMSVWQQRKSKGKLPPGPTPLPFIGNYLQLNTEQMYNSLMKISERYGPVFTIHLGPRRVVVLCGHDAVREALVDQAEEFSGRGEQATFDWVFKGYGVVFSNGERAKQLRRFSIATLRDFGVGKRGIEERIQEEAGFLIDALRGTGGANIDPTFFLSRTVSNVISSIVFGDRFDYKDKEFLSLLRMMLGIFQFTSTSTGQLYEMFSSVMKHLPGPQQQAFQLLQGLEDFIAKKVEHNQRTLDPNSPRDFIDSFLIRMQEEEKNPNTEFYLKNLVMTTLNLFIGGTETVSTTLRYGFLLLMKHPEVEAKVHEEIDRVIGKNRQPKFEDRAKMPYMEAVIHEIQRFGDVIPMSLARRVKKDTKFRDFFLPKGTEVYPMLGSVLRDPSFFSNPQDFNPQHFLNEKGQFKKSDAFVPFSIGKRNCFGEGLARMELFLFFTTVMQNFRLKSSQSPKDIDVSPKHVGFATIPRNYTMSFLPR
T1 sequence (Q12809 whole entry): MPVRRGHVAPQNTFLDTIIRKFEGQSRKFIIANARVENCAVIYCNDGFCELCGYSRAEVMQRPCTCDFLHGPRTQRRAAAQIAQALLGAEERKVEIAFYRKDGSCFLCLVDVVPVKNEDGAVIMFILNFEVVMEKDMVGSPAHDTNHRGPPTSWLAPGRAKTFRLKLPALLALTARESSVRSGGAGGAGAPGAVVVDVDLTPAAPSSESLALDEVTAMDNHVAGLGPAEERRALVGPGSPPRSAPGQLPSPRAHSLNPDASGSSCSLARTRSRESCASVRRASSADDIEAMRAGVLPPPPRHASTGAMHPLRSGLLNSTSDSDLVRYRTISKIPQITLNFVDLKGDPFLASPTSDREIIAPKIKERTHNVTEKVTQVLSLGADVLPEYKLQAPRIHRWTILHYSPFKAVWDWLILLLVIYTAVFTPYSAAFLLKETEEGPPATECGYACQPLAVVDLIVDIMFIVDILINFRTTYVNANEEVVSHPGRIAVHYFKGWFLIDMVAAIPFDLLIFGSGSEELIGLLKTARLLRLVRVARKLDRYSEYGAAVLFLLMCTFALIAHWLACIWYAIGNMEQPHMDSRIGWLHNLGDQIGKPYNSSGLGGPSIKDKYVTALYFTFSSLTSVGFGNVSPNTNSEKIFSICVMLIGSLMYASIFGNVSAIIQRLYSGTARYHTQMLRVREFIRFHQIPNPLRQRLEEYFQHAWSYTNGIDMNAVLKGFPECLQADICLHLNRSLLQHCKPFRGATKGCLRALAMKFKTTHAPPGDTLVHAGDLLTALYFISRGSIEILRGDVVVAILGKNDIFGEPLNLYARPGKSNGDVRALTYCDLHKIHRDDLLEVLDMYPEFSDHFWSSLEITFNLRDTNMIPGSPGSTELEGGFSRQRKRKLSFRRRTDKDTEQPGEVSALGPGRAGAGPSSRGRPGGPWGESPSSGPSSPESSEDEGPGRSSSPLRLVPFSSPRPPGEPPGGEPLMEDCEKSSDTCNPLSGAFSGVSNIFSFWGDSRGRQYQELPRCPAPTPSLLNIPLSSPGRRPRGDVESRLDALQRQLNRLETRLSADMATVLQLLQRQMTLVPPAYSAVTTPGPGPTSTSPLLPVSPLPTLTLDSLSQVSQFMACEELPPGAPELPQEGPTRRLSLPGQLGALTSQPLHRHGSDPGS
CYP3A4, sequence (P08684 whole entry): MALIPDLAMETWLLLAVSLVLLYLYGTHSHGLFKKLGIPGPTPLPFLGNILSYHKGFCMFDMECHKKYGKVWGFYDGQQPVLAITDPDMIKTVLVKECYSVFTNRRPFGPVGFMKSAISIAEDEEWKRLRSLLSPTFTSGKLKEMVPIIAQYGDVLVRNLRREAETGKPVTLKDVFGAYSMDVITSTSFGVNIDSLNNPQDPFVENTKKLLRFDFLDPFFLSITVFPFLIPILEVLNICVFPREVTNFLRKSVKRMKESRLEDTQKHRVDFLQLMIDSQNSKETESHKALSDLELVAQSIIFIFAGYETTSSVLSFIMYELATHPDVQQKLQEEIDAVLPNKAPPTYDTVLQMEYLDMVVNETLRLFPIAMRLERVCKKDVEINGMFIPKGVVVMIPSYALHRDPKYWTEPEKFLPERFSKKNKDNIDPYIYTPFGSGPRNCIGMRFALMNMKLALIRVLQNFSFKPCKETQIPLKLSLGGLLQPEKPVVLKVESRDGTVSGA
CYP2C9, sequence (P11712 whole entry): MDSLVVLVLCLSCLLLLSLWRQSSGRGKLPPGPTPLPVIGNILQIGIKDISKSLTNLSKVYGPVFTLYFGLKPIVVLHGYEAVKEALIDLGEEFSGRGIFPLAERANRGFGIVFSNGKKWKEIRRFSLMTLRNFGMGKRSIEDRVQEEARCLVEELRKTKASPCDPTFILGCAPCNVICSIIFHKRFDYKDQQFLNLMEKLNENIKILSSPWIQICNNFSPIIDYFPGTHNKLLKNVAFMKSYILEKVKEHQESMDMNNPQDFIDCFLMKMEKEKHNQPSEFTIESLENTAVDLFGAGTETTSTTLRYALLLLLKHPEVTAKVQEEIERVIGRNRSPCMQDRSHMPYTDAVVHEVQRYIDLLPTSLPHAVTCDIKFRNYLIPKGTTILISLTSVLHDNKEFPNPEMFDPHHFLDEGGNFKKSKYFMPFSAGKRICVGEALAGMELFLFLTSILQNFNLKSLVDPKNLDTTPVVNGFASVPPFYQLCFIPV
CYP2D6, sequence (P10635 whole entry): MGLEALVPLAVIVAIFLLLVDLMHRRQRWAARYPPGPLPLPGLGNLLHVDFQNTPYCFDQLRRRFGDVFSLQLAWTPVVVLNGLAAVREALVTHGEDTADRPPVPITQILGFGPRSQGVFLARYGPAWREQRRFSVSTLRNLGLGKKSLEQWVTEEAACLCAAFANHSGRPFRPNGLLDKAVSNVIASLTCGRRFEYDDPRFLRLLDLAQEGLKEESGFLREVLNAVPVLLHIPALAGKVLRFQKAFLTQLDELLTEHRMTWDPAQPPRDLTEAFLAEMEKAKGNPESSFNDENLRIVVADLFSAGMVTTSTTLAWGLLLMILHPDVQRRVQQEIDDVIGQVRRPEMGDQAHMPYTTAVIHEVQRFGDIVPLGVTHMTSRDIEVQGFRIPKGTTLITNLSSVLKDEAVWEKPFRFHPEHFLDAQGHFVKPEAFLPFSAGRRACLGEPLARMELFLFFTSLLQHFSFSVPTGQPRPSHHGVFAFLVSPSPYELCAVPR
Aurora-A, sequence (O14965 whole entry): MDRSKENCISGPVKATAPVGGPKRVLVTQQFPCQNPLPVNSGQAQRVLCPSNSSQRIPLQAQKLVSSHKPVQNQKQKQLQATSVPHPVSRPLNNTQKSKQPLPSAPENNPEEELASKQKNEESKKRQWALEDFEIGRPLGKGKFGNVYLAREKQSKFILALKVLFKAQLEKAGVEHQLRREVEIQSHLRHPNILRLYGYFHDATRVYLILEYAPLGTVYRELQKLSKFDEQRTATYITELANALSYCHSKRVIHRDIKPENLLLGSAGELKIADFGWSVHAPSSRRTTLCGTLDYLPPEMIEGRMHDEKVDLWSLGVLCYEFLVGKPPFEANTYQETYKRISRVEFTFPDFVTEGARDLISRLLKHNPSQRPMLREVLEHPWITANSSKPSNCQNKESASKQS
CYP1A2, sequence (P05177 whole entry): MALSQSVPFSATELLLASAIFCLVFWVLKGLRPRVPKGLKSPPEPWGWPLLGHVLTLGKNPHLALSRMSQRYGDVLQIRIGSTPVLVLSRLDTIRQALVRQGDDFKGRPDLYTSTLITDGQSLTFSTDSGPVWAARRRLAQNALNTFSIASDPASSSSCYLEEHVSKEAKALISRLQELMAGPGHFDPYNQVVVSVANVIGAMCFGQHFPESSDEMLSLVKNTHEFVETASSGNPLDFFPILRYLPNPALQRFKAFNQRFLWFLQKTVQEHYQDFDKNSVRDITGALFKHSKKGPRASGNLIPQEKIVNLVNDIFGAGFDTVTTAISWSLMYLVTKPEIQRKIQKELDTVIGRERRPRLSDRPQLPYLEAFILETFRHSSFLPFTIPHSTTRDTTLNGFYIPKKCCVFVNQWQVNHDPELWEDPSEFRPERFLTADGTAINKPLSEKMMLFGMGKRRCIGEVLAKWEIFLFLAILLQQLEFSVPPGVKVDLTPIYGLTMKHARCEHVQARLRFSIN
Aurora-B, sequence (Q96GD4 whole entry): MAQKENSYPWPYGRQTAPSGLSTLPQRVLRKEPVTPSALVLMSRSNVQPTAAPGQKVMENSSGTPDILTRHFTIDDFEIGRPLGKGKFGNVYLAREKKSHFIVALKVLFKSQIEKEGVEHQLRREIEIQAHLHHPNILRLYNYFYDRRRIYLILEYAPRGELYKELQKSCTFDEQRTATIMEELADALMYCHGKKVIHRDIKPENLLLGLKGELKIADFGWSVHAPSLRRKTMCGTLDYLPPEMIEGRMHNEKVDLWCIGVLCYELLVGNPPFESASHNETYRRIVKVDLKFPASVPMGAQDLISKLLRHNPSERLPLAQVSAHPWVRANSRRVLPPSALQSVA

Compound: Cn1cc(-c2nc3c(N4CCN(Cc5cccnc5)CC4)c(Br)cnc3[nH]2)cn1 [Comparator 1, 6-bromo-2-(1-methyl-1H-pyrazol-4-yl)-7-(4-(pyridine-3-ylmethyl)piperazin-1-yl)-3H-imidazo[4,5-b]pyridine]
- IC50 (Aurora-A): 0.032 µM
- IC50 (hERG [1]): 5.5 µM
- IC50 (CYP1A2): 10 to 50 µM
- IC50 (CYP2A6): > 50 µM
- IC50 (CYP2C9): 10 to 50 µM
- IC50 (CYP2D6): 1 to 10 µM
- IC50 (CYP3A4): < 1 µM
- IC50 (CYP2C19): 10 to 50 µM

- MLM: Percentage of parent compound metabolised [2]: 67%
- HLM: Percentage of parent compound metabolised [3]: 22%
- IC50 (CYP3A4): > 50 µM
Compound: Cc1nn(C)cc1-c1nc2c(N3CCN(Cc4ncon4)CC3)c(Cl)cnc2[nH]1 [Example 2, 3-((4-(6-Chloro-2-(1,3-dimethyl-1H-pyrazol-4-yl)-3H-imidazo[4,5-b]pyridin-7-yl)piperazin-1-yl)methyl)-1,2,4-oxadiazole]

Compound: Cc1nn(C)c(C)c1-c1nc2c(N3CCN(Cc4cccnc4)CC3)c(Br)cnc2[nH]1 [Comparator 2, 6-bromo-7-(4-(pyridine-3-ylmethyl)piperazin-1-yl)-2-(1,3,5-trimethyl-1H-pyrazol-4-yl)-3H-imidazo[4,5-b]pyridine]
- IC50 (Aurora-A): 0.3 µM
- IC50 (hERG [1]): 10.8 µM
- IC50 (CYP2A6): > 50 µM
- IC50 (CYP2C9): 10 to 50 µM
- IC50 (CYP2D6): 10 to 50 µM
- IC50 (CYP3A4): < 1 µM
- IC50 (CYP2C19): 10 to 50 µM

Compound: Cc1nc(CN2CCN(c3c(Cl)cnc4[nH]c(-c5cn(C)nc5C)nc34)CC2)no1 [Example 3, 3-((4-(6-Chloro-2-(1,3-dimethyl-1H-pyrazol-4-yl)-3H-imidazo[4,5-b]pyridin-7-yl)piperazin-1-yl)methyl)-5-methyl-1,2,4-oxadiazole]
- MLM: Percentage of parent compound metabolised [2]: 58%
- HLM: Percentage of parent compound metabolised [3]: 20%
- IC50 (CYP2A6): > 50 µM
- IC50 (CYP3A4): > 50 µM
- IC50 (CYP2C19): > 50 µM
- IC50 (hERG [4]): 9.5 µM

- HLM: Percentage of parent compound metabolised [3]: 86%
Compound: Cc1cc(CN2CCN(c3c(Br)cnc4nc(-c5ccc(N6CCN(C)CC6)cc5)[nH]c34)CC2)no1 [CCT137690, reference compound]
- growth of a SW620 human colon carcinoma xenograft in vivo [5]: inhibits the growth

Compound: Cc1nn(C)cc1-c1nc2c(N3CCN(Cc4ccc(Cl)cc4)CC3)c(Cl)cnc2[nH]1 [Example 1, 6-Chloro-7-(4-(4-chlorobenzyl)piperazin-1-yl)-2-(1,3-dimethyl-1H-pyrazol-4-yl)-3H-imidazo[4,5-b]pyridine]
- MLM: Percentage of parent compound metabolised [2]: 34%
- HLM: Percentage of parent compound metabolised [3]: 10%
- LogD7.4 (Log D measurement): ^cLogD7.4 = 3.84 (experimentally determined value).
- hits from the 386 non-mutant kinases tested [6]: 22
- remaining binding at 1 µM (Aurora-B): 1%
- competition for FLT3 kinase (FLT3): greater than 94%
- competition for FLT3(D835H) (FLT3(D835H)): greater than 94%
- competition for FLT3(D835Y) (FLT3(D835Y)): greater than 94%
- competition for FLT3-ITD (FLT3-ITD): greater than 94%
- GI50 [7]: 0.3 µM
- day single mice were culled (mean tumour volume increased by over 500%) ([8]; 50 mg/kg): 28 days and 31 days
- tumour volume, % of the initial volume after 11 days ([8]; 50 mg/kg dosing schedule): 42%
- day single mice were culled (mean tumour volume increased by over 500%) ([8]; 100 mg/kg): 46 days and 56 days
- tumours when therapy was discontinued after 11 days ([8]; 100 mg/kg dosing schedule): undetectable
- toxicity as defined by body weight loss ([8]; athymic mice, oral 50 and 100 mg/kg): no observed toxicity
- growth of MV4-11 human tumour xenografts ([8]; athymic mice, oral 50 and 100 mg/kg, dose dependent): strongly inhibited the growth
- mice that failed to develop progressively growing tumours ([8]; each treatment group (50 and 100 mg/kg), study terminated on day 60): 60%
- histone H-3 phosphorylation [9]: clear inhibition
- STAT5 phosphorylation [10]: inhibition of STAT5 phosphorylation
- IC50 (hERG [1]): > 25 µM
- Vd (In vivo full PK in mouse; female, Balb/C, plasma, 5 mg/kg): 0.066 L and ~3.3 L/kg
- clearance (In vivo full PK in mouse; female, Balb/C, plasma, iv, 5 mg/kg): 0.967 mL/min
- AUCinf, (iv) (In vivo full PK in mouse; iv 5 mg/kg): 3.753 µM·h
- Cl, (iv) (In vivo full PK in mouse; iv 5 mg/kg): 0.058 L/h
- t½, (iv) (In vivo full PK in mouse; iv 5 mg/kg): 50.4 min
- F % (po) (In vivo full PK in mouse; oral 5 mg/kg): 100%
- IC50 (CYP2A6): > 50 µM
- IC50 (CYP3A4): > 50 µM
